Data from US9926284B2, “Substituted N-(1,2,4-triazol-3-yl)Arylcarboxamide compounds and their use as herbicides” (BASF SE, priority 2013, dated 2018).
Marks after values point to notes of the source that are not given here.

Assays:
Assay type in all cases: in vivo
Agrostis spica-venti = assay: greenhouse pre-emergence treatment, herbicidal activity; settings: pre-emergence (values labeled *), 1000 g/ha, scale 0 to 100
Source text: (§1) The seeds of the test plants were sown separately for each species. For the pre-emergence treatment, the active ingredients, which had been suspended or emulsified in water, were applied directly after sowing by means of finely distributing nozzles. The containers were irrigated gently to promote germination and growth and subsequently covered with transparent plastic hoods until the plants had rooted. This cover caused uniform germination of the test plants, unless this has been impaired by the active ingredients. Depending on the species, the plants were kept at 10-25° C. or 20-35° C. The test period extended over 2 to 4 weeks. During this time, the plants were tended, and their response to the individual treatments was evaluated. Evaluation was carried out using a scale from 0 to 100. 100 means no emergence of the plants, or complete destruction of at least the aerial moieties, and 0 means no damage, or normal course of growth. A good herbicidal activity is given at values of at least 70 and a very good herbicidal activity is given at values of at least 85. The plants used in the greenhouse experiments belonged to the following species: [table]

Echinochloa crus-galli [1] = assay: as above; settings: pre-emergence (values labeled *), 1000 g/ha, scale 0 to 100
Source text: as §1

Setaria faberi = assay: as above; settings: pre-emergence (values labeled *), 1000 g/ha, scale 0 to 100
Source text: as §1

Abutilon theophrasti [2] = assay: as above; settings: pre-emergence (values labeled *), 1000 g/ha, scale 0 to 100
Source text: as §1

Amaranthus retroflexus [3] = assay: as above; settings: pre-emergence (values labeled *), 1000 g/ha, scale 0 to 100
Source text: as §1

Echinochloa crus-galli [4] = assay: greenhouse post-emergence treatment, herbicidal activity; settings: 1000 g/ha, scale 0 to 100
Source text: (§2) The seeds of the test plants were sown separately for each species. For the post-emergence treatment, the test plants were first grown to a height of 3 to 15 cm, depending on the plant habit, and only then treated with the active ingredients which had been suspended or emulsified in water. For this purpose, the test plants were either sown directly and grown in the same containers, or they were first grown separately as seedlings and transplanted into the test containers a few days prior to treatment. Depending on the species, the plants were kept at 10-25° C. or 20-35° C. The test period extended over 2 to 4 weeks. During this time, the plants were tended, and their response to the individual treatments was evaluated. Evaluation was carried out using a scale from 0 to 100. 100 means no emergence of the plants, or complete destruction of at least the aerial moieties, and 0 means no damage, or normal course of growth. A good herbicidal activity is given at values of at least 70 and a very good herbicidal activity is given at values of at least 85. The plants used in the greenhouse experiments belonged to the following species: [table]

Alopecurus agrestis = assay: as above; settings: 1000 g/ha, scale 0 to 100
Source text: as §2

Setaria viridis = assay: as above; settings: 1000 g/ha, scale 0 to 100
Source text: as §2

Abutilon theophrasti [5] = assay: as above; settings: 1000 g/ha, scale 0 to 100
Source text: as §2

Amaranthus retroflexus [6] = assay: as above; settings: 1000 g/ha, scale 0 to 100
Source text: as §2

Avena fatua = assay: as above; settings: 1000 g/ha, scale 0 to 100
Source text: as §2

SMILES	damage [%] in weed species IV (APESV) (Agrostis spica-venti)	damage [%] in weed species VI (ECHCG) (Echinochloa crus-galli [1])	damage [%] in weed species VII (SETFA) (Setaria faberi)	damage [%] in weed species I (ABUTH) (Abutilon theophrasti [2])	damage [%] in weed species III (AMARE) (Amaranthus retroflexus [3])	damage [%] in weed species VI (ECHCG) (Echinochloa crus-galli [4])	damage [%] in weed species II (ALOMY) (Alopecurus agrestis)	damage [%] in weed species VIII (SETVI) (Setaria viridis)	damage [%] in weed species I (ABUTH) (Abutilon theophrasti [5])	damage [%] in weed species III (AMARE) (Amaranthus retroflexus [6])	damage [%] in weed species V (AVEFA) (Avena fatua)
Cn1cnnc1NC(=O)c1c(F)cc(Cl)c(S(C)(=O)=O)c1Cl [cpd. 5, 2,4-dichloro-6-fluoro-3-methylsulfonyl-N-(4-methyl-1,2,4-triazol-3-yl)benzamide]	70* %	80%	85* %	80%	85%	98%	85%	95%	98%	90%	–
CCn1cnnc1NC(=O)c1c(F)cc(Cl)c(SC)c1Cl [cpd. 3, 2,4-dichloro-N-(4-ethyl-1,2,4-triazol-3-yl)-6-fluoro-3 methyl-sulfanyl-benzamide]	–	75%	70* %	90%	90%	98%	–	100%	100%	100%	80%
CSc1c(Cl)cc(F)c(C(=O)Nc2nncn2C)c1Cl [cpd. 4, 2,4-dichloro-6-fluoro-3-methylsulfanyl-N-(4-methyl-1,2,4-triazol-3-yl)benzamide]	70* %	–	70* %	70%	100, 100* %	95%	90%	100%	100%	100, 100* %	90%
CCn1cnnc1NC(=O)c1c(F)cc(Cl)c(S(C)(=O)=O)c1Cl [cpd. 2, 2,4-dichloro-N-(4-ethyl-1,2,4-triazol-3-yl)-6-fluoro-3-methyl-sulfonyl-benzamide]	80* %	98%	85* %	–	95%	90%	–	100%	100%	75%	75%
